Data reported in patent publication US20090098548A1, “MODULATORS OF ENZYMATIC NUCLEIC ACID ELEMENTS MOBILIZATION” (priority 2004, published 2009).
“Also recorded” adds a separate entry of the source. Like-named read-outs stand apart in the source and are kept apart here.

Legend:
[1] = biological target: T1, Tn5 transposase (EK54, MA56 and LP372 hyperactive mutant version) (Escherichia coli, UniProt Q46731, E54K/L372P/M56A); assay: Inhibition of Tn5 transposase-DNA complex assembly (synapsis), gel shift assay; format: binding, prokaryotic (Tn5 transposon, IS4 family); settings: 800 nM transposase, 160 nM dsDNA, 60 bp DNA, fit to exponential decay, ± SD from fit, at least two, typically three experiments
T1 construct: made in house
T1 sequence (Q46731 1-476 E54K/M56A/L372P): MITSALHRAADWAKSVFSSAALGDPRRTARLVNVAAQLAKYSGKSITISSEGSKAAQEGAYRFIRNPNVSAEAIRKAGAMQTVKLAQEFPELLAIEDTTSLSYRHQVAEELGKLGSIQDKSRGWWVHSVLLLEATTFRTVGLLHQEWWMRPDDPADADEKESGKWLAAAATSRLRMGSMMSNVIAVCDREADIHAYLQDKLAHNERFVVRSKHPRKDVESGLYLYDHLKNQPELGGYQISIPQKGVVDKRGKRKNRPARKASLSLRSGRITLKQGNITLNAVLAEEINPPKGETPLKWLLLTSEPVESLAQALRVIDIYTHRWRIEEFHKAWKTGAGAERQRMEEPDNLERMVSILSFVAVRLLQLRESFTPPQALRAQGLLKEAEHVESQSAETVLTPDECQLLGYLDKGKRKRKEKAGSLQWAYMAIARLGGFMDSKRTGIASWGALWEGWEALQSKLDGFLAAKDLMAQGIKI
Protocol: The data in this graph were obtained from multiple experiments. Each data point represents at least two, typically three, independent experiments. Error is represented as the standard deviation (SD) from the fit of the data to the equation used to calculate the IC50. Tnp=transposase.
IC50 values were determined from gel shift assays, similar to FIG. 5. […] Each value represents at least two, typically three, independent experiments. Error is represented as the standard deviation (SD) from the fit of the data to the equation used to calculate the IC50.
DNA substrates: The oligonucleotides were purchased HPLC purified from IDT. dsDNA was formed by adding two μmoles of each oligonucleotide to 10 mM Tris-HCl pH 7.9 and 10 mM NaCl. The oligonucleotides were either heated to 96° C. for one minute followed by a decrease in temperature at 0.1° C./sec to 4° C. or heated to 90° C. in a 2 L water bath and cooled to 8° C. overnight. The transferred strand was 5′ end labeled with either rhodamine green for FP or fluorescein for gel shift assays.
The 19 bp DNA sequences used for FP assays were 5° C. […] The 40 bp DNA sequences used for the gel shift assays during assay development were 5° C.
(§1) Transposase and integrase purification: The EK54, MA56 and LP372 hyperactive mutant version of transposase was used for all assays and is referred to as transposase throughout this work. Transposase and integrase proteins were purified as described in Ason, B., and W. S. Reznikoff, J Mol Biol 335:1213-25, 2004 and Taganov, K. D. et al., Journal of Virology 78:5848-55, 2004, both are herein incorporated by reference in their entirety.
FP and gel-shift assays: Reactions were performed as described in Ason, B., and W. S. Reznikoff, J Mol Biol 335:1213-25, 2004, except 800 nM transposase and 160 nM dsDNA were used for complex formation. For FP analysis, 60 μL reactions were analyzed using the FP protocol on a Wallac Victor V plate reader and a 7% native polyacrylamide gel was used in gel shift assays. For compound screening and subsequent analysis, 1 μL of either DMSO or test compound (final concentration […]) was added to the synapsis reactions. Compound screening was carried out using a Beckman Coulter Biomek FX in a 384 well format. Compounds identified as hits were rescreened using gel shift assays under synapsis conditions with a 120 μM compound concentration. IC50 values were obtained by fitting inhibitor titration data (0, 0.01, 0.05, 0.1, 0.5, 2.5, 10, 20, 35, 50, 100, 200, 400, 800 μM) to an exponential decay.

HIV-1 integrase [2] = biological target: T2, HIV-1 integrase (Human immunodeficiency virus type 1 group M subtype B, UniProt P04585); assay: HIV-1 integrase in vitro activity, 3' strand processing (denaturing PAGE); format: biochemical; design: HIV-1 integrase (1 μM, final concentration); made in house
Protocol: The degree of 3′ strand processing is measured by the percentage of the signal obtained for the 3′ strand processing product relative to the total signal per lane. IN=integrase.
These values are calculated from data measuring the percentage of the 3′ strand processing product formed, as described in FIG. 6. Assay products are observed using PAGE, as described in the methods section. Each value represents at least two, typically three, independent experiments. Error is represented as the standard deviation (SD) from the fit of the data to the equation used to calculate the IC50.
Increasing concentrations (0.01, 0.1, 1, 10, 20, 30, 50, 75, 100 μM) of each compound were used to determine their ability to block HIV-1 integration in vivo and determine their inherent cytotoxicity, as described in the methods section of example 2 below. Reactions were performed in triplicate. Each compound is further analyzed for inhibition of integrase activity in vitro, as described in FIG. 6. Each value represents three independent experiments. Error is represented as the standard deviation (SD) from the fit of the data to the equation used to calculate the IC50. IN=integrase.
as §1
(§2) HIV-1 integrase assay: HIV-1 integrase activity was measured as described in Daniel, R. et al., AIDS Res Hum Retroviruses 20:135-44, 2004 (incorporated by reference in its entirety), except that 1.0 μL of either DMSO or inhibitor were added to the reactions. Briefly, HIV-1 integrase (1 μM, final concentration) was pre-incubated with various concentrations of inhibitor at 30° C. for 30 min. A 21-base pair ^32P labeled substrate (1×10^6 dpm), representing the U5 end of the viral genome, and MnCl2 (10 mM, final concentration) were subsequently added to the reaction. The reaction proceeded for 15 min. at 37° C. The reactions were subsequently quenched using EDTA (10 mM, final concentration), and the products separated on a 20% denaturing polyacrylamide gel.

HIV-1 integrase [3] = biological target: T2, HIV-1 integrase; assay: HIV-1 integrase assay (3' strand processing, PAGE); format: biochemical; design: made in house
Protocol: as §2

Tn5 transposase = biological target: T3, Tn5 transposase (Escherichia coli, UniProt Q46731, E54K/L372P/M56A); format: binding
T3 construct: made in house
Protocol: For FP analysis, 60 μL reactions were analyzed using the FP protocol on a Wallac Victor V plate reader and a 7% native polyacrylamide gel was used in gel shift assays. For compound screening and subsequent analysis, 1 μL of either DMSO or test compound (final concentration 80 KIM) was added to the synapsis reactions. Compound screening was carried out using a Beckman Coulter Biomek FX in a 384 well format. Compounds identified as hits were rescreened using gel shift assays under synapsis conditions with a 120 μM compound concentration. IC50 values were obtained by fitting inhibitor titration data (0, 0.01, 0.05, 0.1, 0.5, 2.5, 10, 20, 35, 50, 100, 200, 400, 800 μM) to an exponential decay.

HIV-1 = tested on: HIV-1
Protocol: HIV-1 transduction assay and inhibitory screen: 10,000 Ghost-R5 cells per well were plated in a 384 well plate in 49 μL media. 18 hours after plating, 1 μL of inhibitory compound, dissolved in DMSO, was added and gently mixed into solution. Following a 1 hour 37° C. incubation, HIV-1 virions were added in a final infectious volume of 100 μL. 44-48 hours after infection, 87 μL of media was removed from each well, and 13 μL/well of Bright-Glo luciferase detection reagent (Promega) was added. After a 2 minute incubation, the plates were read on a multiwell plate luminometer.
In parallel, cells infected with virus and compound were assayed for luciferase expression by the addition of […] of Bright-Glo reagent, as described above. In this way, effect of the inhibitory compounds on luciferase expression brought about by successful transduction was measured in the constant presence of the compounds.

[4] = tested on: HIV reverse transcription; assay: Quantitative real-time PCR of reverse transcripts in acutely infected cells; format: cell-based, HIV-1; settings: 75 μM inhibitor, QPCR
Protocol: Quantitative real-time PCR of reverse transcripts, detection of transduction in newly infected cells, and effect of compounds on established provirus expression in stably infected cells: 10,000 Ghost-R5 cells were plated in 96 well dishes, treated with compound in a total volume of 75 μL, and incubated at 37° C. for 1 hour. Virus was then added in an additional volume of 25 μL. The final infectious volume was 100 μL, the final DMSO concentration was 1%, and the final compound concentration was as indicated. DNA was harvested using the DNeasy kit (Qiagen) 24 hours after infection in the constant presence of inhibitory compounds. Late DNA products of HIV reverse transcription were quantitated using the primers MH531 and MH532, and the probe LTR-P, as described in Burke, T. R. et al., J Med Chem 38:4171-8, 1995, herein incorporated by reference in its entirety.

[5] = tested on: luciferase expression from proviral DNA; assay: Established provirus luciferase expression in stably infected Ghost-R5 cells; format: cell-based, HIV-1; settings: 75 μM inhibitor, chronically infected cells
Protocol: To assess the potential effects of the inhibitory compounds on post-integration events such as transcription, translation, and luciferase enzyme stability and activity, Ghost-R5 cells stably infected several weeks earlier with the same virus preparation were incubated with inhibitory compound in 96 well dishes and luciferase activity was monitored 48 hours later by the addition of 100 μL of Bright-Glo reagent to each well, as described above.

[6] = read-out: HIV-1 IN (integrase) in vitro IC50
[7] = 1 μM integrase, pre-incubated 30° C. 30 min, 21-base pair 32P substrate, 10 mM MnCl2, 15 min 37° C., ± SD from fit, at least two, typically three experiments, read-out: HIV-1 integrase (3' strand processing) IC50

| Structure (SMILES) | IC50 [1] [µM] | other results |
| --- | --- | --- |
| CCCOc1ccc(C(=O)Nc2ccc(Br)cc2C(=O)O)cc1 [Compound 20] | 20 ± 3 |  |
| O=C(O)C(Cc1ccccc1)N1C(=O)C(=CC=Cc2ccccc2)SC1=S (stereo not drawn) [Compound 19] | 16 ± 2 |  |
| O=C(C1=C(O)C(=O)N(c2ccccc2)C1c1cccc([N+](=O)[O-])c1)c1ccccc1 (stereo not drawn) [Compound 10-A] |  | IC50 (HIV-1 integrase [2]; [6]): 165 ± 35 µM |
| COc1cccc(OCCOc2cccc(C=C3SC(=S)NC3=O)c2)c1 [Compound 11] | 5.3 ± 0.9 |  |
| O=C(Nc1ccccc1C(=O)O)c1cccc(NC(=O)C(c2ccccc2)c2ccccc2)c1 [Compound 16] | 46 ± 5 |  |
| COc1ccc(C(c2c(O)c3ccccc3oc2=O)c2c(O)c3ccccc3oc2=O)cc1Cn1nc(C)c([N+](=O)[O-])c1C [Compound 4] | 4.7 ± 0.4 | IC50 (HIV-1 integrase [2]; [7]): 9 ± 2 µM |
| O=C(C1=C(O)C(=O)N(c2ccccc2)C1c1cccc([N+](=O)[O-])c1)c1ccccc1 (stereo not drawn) [compound 10-A] |  | inhibition of integrase in vitro (in words) (HIV-1 integrase [3]): impedes its efficacy as an integrase inhibitor |
| Cc1ccc(C(=O)Nc2ccccc2C(=O)Nc2ccccc2C(=O)O)cc1 [Compound 8] | 8.7 ± 1 |  |
| Cc1ccccc1N1C(=O)C(O)=C(C(=O)/C=C/c2ccccc2)C1c1ccc(Br)cc1 (stereo not drawn) [Compound 10-G] |  | IC50 (HIV-1 integrase [2]; [6]): 11 ± 2 µM |
| COc1ccc(N2C(=O)C(O)=C(C(=O)/C=C/c3ccccc3)C2c2ccc(Cl)cc2)cc1 (stereo not drawn) [Compound 10-E] |  | IC50 (HIV-1 integrase [2]; [6]): 12 ± 3 µM |
| O=c1oc2ccccc2c(O)c1C(c1cccc(F)c1)c1c(O)c2ccccc2oc1=O [Compound 1] | 8.1 ± 1.2 |  |
| O=C1C(=C2c3ccccc3C(=O)C2C2c3ccccc3Oc3ccccc32)C(=O)c2ccccc21 (stereo not drawn) [Compound 9] | 3.4 ± 0.7 |  |
| COc1cccc(C(c2c(O)c3ccccc3oc2=O)c2c(O)c3ccccc3oc2=O)c1 [Compound 12] | 9.5 ± 0.9 |  |
| O=C(/C=C/c1ccccc1)C1=C(O)C(=O)N(c2cccc(C(F)(F)F)c2)C1c1ccc([N+](=O)[O-])cc1 (stereo not drawn) [Compound 10-F] |  | IC50 (HIV-1 integrase [2]; [6]): 11 ± 4 µM |
| COc1cc(C=C2SC(=S)NC2=O)ccc1OS(=O)(=O)c1ccccc1[N+](=O)[O-] [Compound 14] | 8.6 ± 0.8 | IC50 (HIV-1 integrase [2]; [7]): 17 ± 3 µM |
| O=C(Nc1ccccc1C(=O)O)c1ccc(NC(=O)C(c2ccccc2)c2ccccc2)cc1 [Compound 17] | 9.3 ± 0.9 |  |
| O=C(/C=C/c1ccccc1)C1=C(O)C(=O)N(c2ccccc2)C1c1cccc([N+](=O)[O-])c1 (stereo not drawn) [Compound 10] | 35 ± 3 |  |
| O=C(/C=C/c1ccccc1)C1=C(O)C(=O)N(c2cccc(C(=O)O)c2)C1c1ccc([N+](=O)[O-])cc1 (stereo not drawn) [Compound 10-D] |  | IC50 (HIV-1 integrase [2]; [6]): 87 ± 9 µM |
| Cc1ccc(C(c2c(O)c3ccccc3oc2=O)c2c(O)c3ccccc3oc2=O)cc1 [Compound 3] | 3.5 ± 0.4 |  |
| COc1cc(C=C2SC(=S)NC2=O)cc(Cl)c1OC(C)C [Compound 5] | 10 ± 1 |  |
| CCc1nnc(NS(=O)(=O)c2ccc(NC=CC(=O)c3ccc4ccccc4c3)cc2)s1 [Compound 7] | 4 ± 0.6 |  |
| COc1ccc(N2C(=O)C(O)=C(C(=O)/C=C/c3ccccc3)C2c2ccc([N+](=O)[O-])cc2)cc1 (stereo not drawn) [Compound 10-C] |  | IC50 (HIV-1 integrase [2]; [6]): 46 ± 12 µM |
| O=C(O)C(Cc1ccccc1)N1C(=O)C(=Cc2ccc(Br)cc2)SC1=S (stereo not drawn) [Compound 18] | 10 ± 1 |  |
| O=S(=O)(c1cc(Cl)cc(Cl)c1O)c1cc(Cl)cc(Cl)c1O [Compound 6] | 4 ± 0.3 | IC50 (HIV-1 integrase [2]; [7]): 32 ± 9 µM |
| COc1ccc(N2C(=O)C(O)=C(C(=O)/C=C/c3ccccc3)C2c2cccc([N+](=O)[O-])c2)cc1 (stereo not drawn) [10-B] |  | inhibition of transposase assembly (in words) (Tn5 transposase): inhibit; inhibition of HIV-1 infection in cells (in words) (HIV-1): inhibit; effect on reverse transcription (viral DNA synthesis) [4]: either uninhibited, or only inhibited to a small extent; also recorded: no significant inhibitory effect; effect on luciferase expression from proviral DNA [5]: no significant inhibitory effect; inhibition of integrase in vitro (in words) (HIV-1 integrase [3]): inhibit |
| O=C(Nc1ccccc1C(=O)O)c1ccc2c(c1)C(=O)N(c1ccccc1-c1ccccc1)C2=O [Compound 15] | 20 ± 2 |  |
| O=C(NC(=S)Nc1cc([N+](=O)[O-])cc(Cl)c1O)c1ccccc1 [aromatic thiourea] |  | IC50 (Tn5 transposase; read-out: IC50, inhibition of Tn5 transposase-DNA complex assembly, gel shift assays, inhibitor titration): 24 µM |
| COc1ccc(N2C(=O)C(O)=C(C(=O)/C=C/c3ccccc3)C2c2cccc([N+](=O)[O-])c2)cc1 (stereo not drawn) [Compound 10-B] |  | IC50 (HIV-1 integrase [2]; [6]): 22 ± 12 µM |
| COc1ccc(C(c2c(O)c3ccccc3oc2=O)c2c(O)c3ccccc3oc2=O)cc1CSc1ccccn1 [Compound 2] | 4.8 ± 0.4 |  |
